Reference: US12084434B2 (Scorpion Therapeutics, Inc., priority 2021, dated 2024)
Read-outs that look alike come from different tables or passages of the source.

System: T47D pAKT (S473), PI3Kα H1047R mutation present
Test: HTRF pAKT-T47D;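 note: assay medium was RPMI with 10% FBS and 0.2 units/ml bovine insulin, without phenol red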
Details: Homo sapiens, T47D, 1 h
[1] = read-out: T47D pAKT IC50 (nM), T47D.1 cells, pAKT (S473) HTRF, 1 hour

Method: Homogenous Time-Resolved Fluorescence (HTRF)—pAKT-T47D
Compounds were assayed using homogeneous time-resolved fluorescence (HTRF).
Gibco RPMI 1640 Medium, no phenol red; Gibco RPMI 1640 Medium; Gibco Trypsin-EDTA (0.5%), no phenol red; Gibco DPBS; Trypan blue solution 0.4% (Corning); Avantor Seradigm Premium Grade Fetal Bovine Serum (FBS); Greiner 784080-384 well TC treated white plates; pAKT (Ser473) HTRF; Gibco Insulin, human recombinant, zinc solution; Gibco Recovery Cell Culture Freezing Medium; Countess II FL Automated Cell Counter (ThermoFisher); Countess II Slides (ThermoFisher); Microscope; and PHERAstar FSX Microplate Reader (BMG LABTECH, Inc.).
The scinamic cell line ID was T47D.1, the HTRF detection was pAKT (S473), a PI3Kα H1047R mutation was present, the seeding density was 5000, the timepoint was 1 hour, and the medium used was RPMI+10% FBS (no phenol red)+0.2 units/ml bovine insulin.
• The cell density was not permitted to reach 100% confluence. The cells were split 1:5 when they reached ˜80% confluence. • Cells were split twice a week (Mon and Fri). • Cells over passage 18 were not used (˜2 months of maintenance). • Antibiotics were not used for tissue culture maintenance or assays. […] Protocol Day1
The procedure was as follows: • 1. Prepared ARP: • a. Stamped 12.5 nL from 10 μmM source plate to destination plate using Echo. Sealed plate immediately and froze at −20° C. if it was not used on the same day. • b. If a frozen ARP was used, the plate was thawed and spun at 1000 rpm×1 min. • 2. Preparation of cells (adherent): • a. Aspirated media from cells. Washed cells with sterile 1XPBS. Aspirated PBS and added appropriate amount of Trypsin. • b. Once cells were fully trypsinized, added appropriate media to resuspend cells. Transferred cells to a 15 mL or 50 mL conical tube. • c. Counted cells on the Countess II Cell Counter. • 3. Plating of cells: • a. Prepared cells at appropriate plating density. Dispensed 12 μL of diluted cells per well of a Greiner 784080-384 well TC treated white plate using a Multidrop Combi to columns 1-23. Added 12 uL of appropriate phenol free media only to column 24. • b. Placed plates in 37° C. tissue culture incubator for appropriate treatment time (refer to “Assay” table). • 4. Prepared HTRF Lysis Buffer • a. Calculate the amount of HTRF lysis buffer master mix needed to perform the desired experiments plus any extra dead volume required for dispensing (4 μL required per well). […] Add 4 uL Lysis buffer master mix to all wells with sample or DMSO. Centrifuge the plates for 1 minute at 1000 rpm. • c. Incubate at room temperature for 30 minutes. • 5. Prepared HTRF Antibody • a.

IC50 [1] [nM]	Compound	IC50 (read-out: T47D pAKT IC50 (nM)) [nM]
< 1000	Cc1c([C@@H](NC(=O)Nc2cnc(N3CC(F)C3)nc2)C(F)(F)F)oc2ccc(F)cc12 [Compound 95, (R)-1-(2-(3-fluoroazetidin-1-yl)pyrimidin-5-yl)-3-(2,2,2-trifluoro-1-(5-fluoro-3-methylbenzofuran-2-yl)ethyl)urea]	–
< 1000	Cc1c([C@@H](NC(=O)Nc2cnc(N3CC(C)(O)C3)nc2)C(C)C)oc2ccc(F)cc12 [Compound 96, (S)-1-(1-(5-fluoro-3-methylbenzofuran-2-yl)-2-methylpropyl)-3-(2-(3-hydroxy-3-methylazetidin-1-yl)pyrimidin-5-yl)urea]	–
< 1000	Cc1c([C@@H](NC(=O)Nc2cnc(N3CC(C)(O)C3)nc2)C(F)(F)F)oc2ccc(F)cc12 [Compound 98, (R)-1-(2-(3-hydroxy-3-methylazetidin-1-yl)pyrimidin-5-yl)-3-(2,2,2-trifluoro-1-(5-fluoro-3-methylbenzofuran-2-yl)ethyl)urea]	–
1000 to 5000	Cc1c([C@H](C)NC(=O)Nc2cnc(N)nc2)oc2ccc(F)cc12 [Compound 101, (S)-1-(2-aminopyrimidin-5-yl)-3-(1-(5-fluoro-3-methylbenzofuran-2-yl)ethyl)urea]	–
1000 to 5000	Cc1c([C@@H](NC(=O)Nc2ccc3c(c2)C(=O)OC3)C(C)C)oc2ccc(F)cc12 [Compound 102, 3-[(1S)-1-(5-fluoro-3-methyl-1-benzofuran-2-yl)-2-methylpropyl]-1-(3-oxo-1H-2-benzofuran-5-yl)urea]	–
1000 to 5000	Cc1c([C@@H](NC(=O)Nc2ccc3c(c2)C(=O)N(C)C3)C(C)C)oc2ccc(F)cc12 [Compound 103]	–
< 1000	CNC(=O)c1cc(NC(=O)N[C@H](c2oc3ccc(F)cc3c2C)C(C)C)ccc1OC [Compound 104]	–
1000 to 5000	Cc1c([C@@H](NC(=O)Nc2cccc(N3CCC3=O)c2)C(C)C)oc2ccc(F)cc12 [Compound 105]	–
1000 to 5000	Cc1c([C@@H](NC(=O)Nc2cnc(N3CCNCC3)nc2)C(C)C)oc2ccc(F)cc12 [Compound 106, (S)-1-(1-(5-fluoro-3-methylbenzofuran-2-yl)-2-methylpropyl)-3-(2-(piperazin-1-yl)pyrimidin-5-yl)urea]	–
< 1000	Cc1c([C@@H](NC(=O)Nc2cnc(N3CCOCC3)nc2)C(C)C)oc2ccc(F)cc12 [Compound 107]	–
1000 to 5000	Cc1c([C@@H](NC(=O)Nc2cnc(C(=O)N(C)C)s2)C(C)C)oc2ccc(F)cc12 [Compound 121, (S)-5-(3-(1-(5-fluoro-3-methylbenzofuran-2-yl)-2-methylpropyl)ureido)-N,N-dimethylthiazole-2-carboxamide]	–
1000 to 5000	Cc1c([C@@H](NC(=O)Nc2csc(C(N)=O)c2)C(C)C)oc2ccc(F)cc12 [Compound 123, (S)-4-(3-(1-(5-fluoro-3-methylbenzofuran-2-yl)-2-methylpropyl)ureido)thiophene-2-carboxamide]	–
1000 to 5000	Cc1c([C@@H](NC(=O)Nc2ccc3nc[nH]c(=O)c3c2)C(C)C)oc2ccc(F)cc12 [Compound 124, (S)-1-(1-(5-fluoro-3-methylbenzofuran-2-yl)-2-methylpropyl)-3-(4-oxo-3,4-dihydroquinazolin-6-yl)urea]	–
1000 to 5000	Cc1c([C@@H](NC(=O)Nc2cccc(-c3nnnn3C)c2)C(C)C)oc2ccc(F)cc12 [Compound 125, (S)-1-(1-(5-fluoro-3-methylbenzofuran-2-yl)-2-methylpropyl)-3-(3-(1-methyl-1H-tetrazol-5-yl)phenyl)urea]	–
1000 to 5000	Cc1c([C@@H](NC(=O)Nc2ccc(Cl)c(S(C)(=O)=O)c2)C(C)C)oc2ccc(F)cc12 [Compound 126, (S)-1-(4-chloro-3-(methylsulfonyl)phenyl)-3-(1-(5-fluoro-3-methylbenzofuran-2-yl)-2-methylpropyl)urea]	–
1000 to 5000	Cc1c([C@@H](NC(=O)Nc2cnc(N3CC(S(C)(=O)=O)C3)nc2)C(C)C)oc2ccc(F)cc12 [Compound 128, (S)-1-(1-(5-fluoro-3-methylbenzofuran-2-yl)-2-methylpropyl)-3-(2-(3-(methylsulfonyl)azetidin-1-yl)pyrimidin-5-yl)urea]	–
< 1000	Cc1c([C@@H](NC(=O)Nc2cnc(NCC(N)=O)nc2)C(C)C)oc2ccc(F)cc12 [Compound 134, (S)-2-((5-(3-(1-(5-fluoro-3-methylbenzofuran-2-yl)-2-methylpropyl)ureido)pyrimidin-2-yl)amino)acetamide]	–
< 1000	Cc1c([C@@H](NC(=O)Nc2cnc(N3CC4(COC4)C3)nc2)C(C)C)oc2ccc(F)cc12 [Compound 135]	–
< 1000	Cc1c([C@@H](NC(=O)Nc2cnc(NC3COC3)nc2)C(C)C)oc2ccc(F)cc12 [Compound 136]	–
< 1000	Cc1c([C@@H](NC(=O)Nc2cnc(NCCCO)nc2)C(C)C)oc2ccc(F)cc12 [Compound 137]	–
< 1000	COC1CN(c2ncc(NC(=O)N[C@H](c3oc4ccc(F)cc4c3C)C(C)C)cn2)C1 [Compound 138]	–

IC50 [1] [nM]	Compound	IC50 (read-out: T47D pAKT IC50 (nM)) [nM]
< 1000	Cc1c([C@@H](NC(=O)Nc2cnc(N3CCNC(=O)C3)nc2)C(C)C)oc2ccc(F)cc12 [Compound 139]	–
< 1000	Cc1c([C@@H](NC(=O)Nc2cnc(N3CCC(O)CC3)nc2)C(C)C)oc2ccc(F)cc12 [Compound 140]	–
< 1000	Cc1c([C@@H](NC(=O)Nc2cnc(N3CCC(C)(O)CC3)nc2)C(C)C)oc2ccc(F)cc12 [Compound 141]	–
< 1000	Cc1c([C@@H](NC(=O)Nc2cnc(NCC(C)(C)O)nc2)C(C)C)oc2ccc(F)cc12 [Compound 142]	–
< 1000	Cc1c([C@@H](NC(=O)Nc2cnc(NC[C@@H](C)O)nc2)C(C)C)oc2ccc(F)cc12 [Compound 143]	–
< 1000	CCC1(O)CN(c2ncc(NC(=O)N[C@H](c3oc4ccc(F)cc4c3C)C(C)C)cn2)C1 [Compound 144]	–
< 1000	Cc1c([C@@H](NC(=O)Nc2cnc(N3CCS(=O)(=O)CC3)nc2)C(C)C)oc2ccc(F)cc12 [Compound 146, 1-[2-(1,1-dioxo-1lambda6-thiomorpholin-4-yl)pyrimidin-5-yl]-3-[(1S)-1-(5-fluoro-3-methyl-1-benzofuran-2-yl)-2-methylpropyl]urea]	–
< 1000	Cc1c([C@@H](NC(=O)Nc2cnc(N3CCS(=N)(=O)CC3)nc2)C(C)C)oc2ccc(F)cc12 [Compound 147, 3-[(1S)-1-(5-fluoro-3-methyl-1-benzofuran-2-yl)-2-methylpropyl]-1-[2-(1-imino-1-oxo-1lambda6-thiomorpholin-4-yl)pyrimidin-5-yl]urea]	–
< 1000	COc1ncc(NC(=O)N[C@H](c2oc3ccc(F)cc3c2C)C(C)C)cn1 [Compound 150, (S)-1-(1-(5-fluoro-3-methylbenzofuran-2-yl)-2-methylpropyl)-3-(2-methoxypyrimidin-5-yl)urea]	–
< 1000	Cc1c([C@@H](NC(=O)Nc2cnc(OCCO)nc2)C(C)C)oc2ccc(F)cc12 [Compound 151, (S)-1-(1-(5-fluoro-3-methylbenzofuran-2-yl)-2-methylpropyl)-3-(2-(2-hydroxyethoxy)pyrimidin-5-yl)urea]	–
< 1000	Cc1c([C@@H](NC(=O)Nc2cnc(OCC3(O)CC3)nc2)C(C)C)oc2ccc(F)cc12 [Compound 152]	–
–	CC(=O)Nc1ncc(NC(=O)N[C@H](c2oc3ccc(F)cc3c2C)C(C)C)cn1 [Compound 159]	< 1000
< 1000	Cc1c([C@@H](NC(=O)Nc2cnc3nccn3c2)C(C)C)oc2ccc(F)cc12 [Compound 160, (S)-1-(1-(5-fluoro-3-methylbenzofuran-2-yl)-2-methylpropyl)-3-(imidazo[1,2-a]pyrimidin-6-yl)urea]	–
< 1000	Cc1c([C@@H](NC(=O)Nc2cnc(N3CCNC3=O)nc2)C(C)C)oc2ccc(F)cc12 [Compound 161, 3-[(1S)-1-(5-fluoro-3-methyl-1-benzofuran-2-yl)-2-methylpropyl]-1-[2-(2-oxoimidazolidin-1-yl)pyrimidin-5-yl]urea]	–
< 1000	COC(=O)Nc1ncc(NC(=O)N[C@H](c2oc3ccc(F)cc3c2C)C(C)C)cn1 [Compound 162, methyl N-[5-({[(1S)-1-(5-fluoro-3-methyl-1-benzofuran-2-yl)-2-methylpropyl]carbamoyl}amino)pyrimidin-2-yl]carbamate]	–
< 1000	CNC(=O)C1CN(c2ncc(NC(=O)N[C@H](c3oc4ccc(F)cc4c3C)C(C)C)cn2)C1 [Compound 163, 1-[5-({[(1S)-1-(5-fluoro-3-methyl-1-benzofuran-2-yl)-2-methylpropyl]carbamoyl}amino)pyrimidin-2-yl]-N-methylazetidine-3-carboxamide]	–
< 1000	Cc1c([C@@H](NC(=O)Nc2cnc(N3CC4(CCO4)C3)nc2)C(C)C)oc2ccc(F)cc12 [Compound 164, 3-[(1S)-1-(5-fluoro-3-methyl-1-benzofuran-2-yl)-2-methylpropyl]-1-(2-{1-oxa-6-azaspiro[3.3]heptan-6-yl}pyrimidin-5-yl)urea]	–
< 1000	Cc1c([C@@H](NC(=O)Nc2cnc(N3CC4(CCCO4)C3)nc2)C(C)C)oc2ccc(F)cc12 [Compound 165, 3-[(1S)-1-(5-fluoro-3-methyl-1-benzofuran-2-yl)-2-methylpropyl]-1-(2-{5-oxa-2-azaspiro[3.4]octan-2-yl}pyrimidin-5-yl)urea]	–
< 1000	Cc1c([C@@H](NC(=O)Nc2cnc(N3CC4(CNC(=O)CO4)C3)nc2)C(C)C)oc2ccc(F)cc12 [Compound 166, 3-[(1S)-1-(5-fluoro-3-methyl-1-benzofuran-2-yl)-2-methylpropyl]-1-(2-{7-oxo-5-oxa-2,8-diazaspiro[3.5]nonan-2-yl}pyrimidin-5-yl)urea]	–
< 1000	Cc1c([C@@H](NC(=O)Nc2cnc(N3CC(OC(F)F)C3)nc2)C(C)C)oc2ccc(F)cc12 [Compound 167, 1-{2-[3-(difluoromethoxy)azetidin-1-yl]pyrimidin-5-yl}-3-[(1S)-1-(5-fluoro-3-methyl-1-benzofuran-2-yl)-2-methylpropyl]urea]	–

Compound	IC50 [1] [nM]	IC50 (read-out: T47D pAKT IC50 (nM)) [nM]
Cc1c([C@@H](NC(=O)Nc2cnc(N3CCSCC3)nc2)C(C)C)oc2ccc(F)cc12 [Compound 145, 3-[(1S)-1-(5-fluoro-3-methyl-1-benzofuran-2-yl)-2-methylpropyl]-1-[2-(thiomorpholin-4-yl)pyrimidin-5-yl]urea]	< 1000	–
